This note sets out measurements from a melting point compilation (Tetko et al.; mined from patent text by program, amines drawn as free bases though some values may be those of a salt).

For orientation: melting point means the temperature, or range, at which the solid turns liquid.

The compound `COCCOc1ccc2sc(C(=O)Nc3ccccc3N)cc2c1` gave a melting point of 162 to 165 °C.

Compound `CCCCCCCCCCCCCc1cc[nH]c1` displayed a melting point of 32.5 to 33.5 °C.

For `Cc1ccc(Oc2nc3nc(C)cc(C)n3n2)c(C)c1`, the melting point was in the range of 133 to 136 °C.

The compound `COC(=O)/C(=C/C1CCCCCC1)c1ccc(S(C)(=O)=O)c(C(F)(F)F)c1` registered a melting point of 151 to 156 °C.

The compound `Cc1cc(C)cc(NC(=O)NCc2ccc3c(c2)CN(C2CCC(=O)NC2=O)C3=O)c1` (centres undefined) gave a melting point of 289 to 291 °C.

`NCC1(O)c2ccccc2C=Cc2ccccc21` came in with a melting point of 117 to 120 °C.

In the case of `CCCCN(CCCC)CCCOc1ccc(S(=O)(=O)c2c(-c3ccccc3)noc2C(C)C)cc1`, the melting point was 53.5 °C.

`Oc1ccc2c(c1)CC(O)C2` (centres undefined) displayed a melting point of 112 to 115 °C.

For the compound `O=C(O)c1cccc(Oc2ncccc2C(=O)NCc2ccccc2)c1`, the melting point lay within 157 to 158 °C.

For the compound `CN(C=O)[C@@H]1CCCc2ccccc21`, the melting point lay within 53 to 55 °C.

`O=C(C1=C(c2ccccc2)c2ccc(O)cc2CC1)c1ccc(O)cc1`: the melting point lay within 205 to 207 °C.

In the case of `CC(C)(O/N=C(\C(=O)N[C@@H]1C(=O)N[C@@H]1COC(=O)NC(=O)CCl)c1csc(NC(=O)CCl)n1)C(=O)OCc1ccc([N+](=O)[O-])cc1` (relative stereo), the melting point is 206 to 209 °C.

The compound `O=C(O)c1ccc(Nc2cc3c4c(c2)CCCC4CCC3)cc1` registered a melting point of 204 to 205 °C.

`COC(=O)c1c(C2CC2)nn2ccc3c(c12)CCO3` gave a melting point of 170 to 172 °C.

Compound `O=C1OC(=O)C(F)=C1F` returned a melting point of 170 to 173 °C.

The compound `Cc1nc(O)n(COCc2ccccc2)c1Sc1ccccc1` showed a melting point of 147 to 148 °C.

Regarding `N=C(N)Nc1nc(CSCCNC2=C([N+](=O)[O-])CCCN2)cs1`, the melting point fell in the range of 211 to 212 °C.

`CSc1nnc(N2CCN(c3ccc(N4CC(CNC(C)=O)OC4=O)cc3F)CC2)s1` (centres undefined) displayed a melting point of 222 to 223 °C.

In the case of `CCOC(=O)c1cc2cc(-c3ccc(Cl)cc3)ccc2o1`, the melting point lay within 108 to 110 °C.

On to `O=C(NC(CO)c1ccc(-c2ccc(SC(F)F)cc2)cc1)c1c(F)cccc1F` (centres undefined), for which the melting point was 156 to 157 °C.

`CCOC(=O)/C=C(C)/C(F)=C/C=C(C)/C=C/c1c(Cl)cc(OC)c(Cl)c1Cl` had a melting point of 140 to 142 °C.

For the compound `O=CNc1cnc2ccccc2c1Cl`, the melting point was 175 to 177 °C.

The compound `Cc1ncc(C(=O)N2CCC(=O)CC2)c(C)n1` had a melting point of 116 °C.

In turn, `CCCCNC(=O)Nc1ccc(N(CC)CC)cc1C(=O)NCC1CCN(C(c2ccccc2)c2ccccc2)CC1` came in with a melting point of 158 to 160 °C.

`Cc1oc(-c2ccccc2)nc1COc1cccc(CON=C(CCCCC(=O)O)c2ccccc2)c1` came in with a melting point of 114 to 115 °C.

With `CS(=O)(=O)c1ccc(-c2cnn(-c3cccc(Cl)c3)c(=O)c2Sc2ccccn2)cc1`, the melting point lay in the range of 110 to 114 °C.

`CCN(C)c1nc2sc3c(NCCN4CCOCC4)ncnc3c2c2c1CCC(C)(C)C2`: the melting point worked out at 144 °C.

`CCOc1cc2c(C)c(CCOS(C)(=O)=O)c(=O)oc2cc1OC` yielded a melting point of 153 to 154 °C.

`Cc1c(CC(=O)N[C@@H](CO)C(=O)O)cc(-c2ccc(S(C)(=O)=O)cc2)n1-c1ccc(F)cc1` showed a melting point of 120 °C.

Compound `COC1CCCC(C(=O)Nc2ccc(-n3nc(C(F)(F)F)cc3C(F)(F)F)cc2)C1` (centres undefined) yielded a melting point of 145 to 147 °C.

In turn, `FC(F)(F)c1cccc(CSc2nnc(-c3ccc4c(c3)CCO4)o2)c1` displayed a melting point of 88 to 90 °C.

As to `c1ccc(C2COc3cccc4c5c(OCCN6CCNCC6)cccc5n2c34)cc1` (centres undefined), the melting point was found to be 72 °C.

`CCCCc1nc2cccnc2n1Cc1ccc2c(Cl)c(C(=O)OC)sc2c1` displayed a melting point of 127 to 129 °C.

In turn, `C=C(C(=O)c1ccc(C(=O)OC)cc1)c1cc(OC)c(OC)c(-c2cccs2)c1` gave a melting point of 102 to 103 °C.

The compound `C=CCN1CC(=O)C(C#N)=C1N` returned a melting point of 275 to 278 °C.

Compound `COc1ccc(C)cc1NC(=O)Nc1ccc(N2CCN(C(=O)Nc3cc(OCC(O)CO)ccc3Cl)CC2)cc1` (centres undefined) had a melting point of 114 to 118 °C.

Consider `CCOC(=O)C1=C(O)[C@H](CC2CCCCC2)NC1=O`, for which the melting point lay in the range of 176 to 180 °C.

`OC(CNC12N=CN=CC1=NC=N2)CN1CCN(C(c2ccc(F)cc2)c2ccc(F)cc2)CC1` (centres undefined): the melting point was in the range of 140 to 170 °C.

In turn, `Cc1cccc2nc3c(c(C)nn3-c3ccccn3)c(Cl)c12` came in with a melting point of 167 to 169 °C.

Consider `CCOc1nn(-c2ccc(C(F)(F)F)cn2)cc1CCCOc1cccc(OC(C)(C)C(=O)O)c1`, for which the melting point fell in the range of 120 to 121 °C.

Compound `O=C(O)CSCCCCCNS(=O)(=O)c1ccc(Cl)cc1` registered a melting point of 93 to 94 °C.

On to `CCc1noc(-c2ncn(-c3cccc(Cl)c3)c2COC)n1`, for which the melting point lay in the range of 125 to 126 °C.

`Cc1cc([N+](=O)[O-])c(C)cc1SCc1cccc(C(F)(F)F)c1` yielded a melting point of 85 to 87 °C.

As to `CCCn1c(=O)c(N=O)c(N)n(CC2CCCCC2)c1=O`, the melting point was 231 to 233 °C.

Compound `Cc1nc2c3c(ccc2n1C)C(O)C(OC(=O)C(C)(C)C)C(c1ccccc1)O3` (centres undefined) had a melting point of 148 °C.

Turning to `CN1Cc2c(C(=O)NN)ncn2-c2ccc(F)c(Cl)c2C1=O`, the melting point was 308 to 310 °C.

Compound `CC(C)(C)OC(=O)Nc1ncccc1Br` yielded a melting point of 120 to 121 °C.

For the compound `Cn1cc(-c2c(-c3ccccc3)nn3ccncc23)ccc1=O`, the melting point was in the range of 168 to 169 °C.

Turning to `c1ccc(COc2ccc(CCCn3ccnc3)cc2)cc1`, the melting point fell in the range of 80 to 81 °C.

`O=c1c2c(Cc3ccc(C(F)(F)F)cc3)n[nH]c2c2cccnc2n1-c1cccc(OC(F)(F)F)c1`: the melting point was 227 to 231 °C.

In turn, `Nc1ccc(-c2ncc(Br)cn2)c([N+](=O)[O-])c1` had a melting point of 165 to 167 °C.

Compound `O=C1CCC(N2Cc3c(OCC4COc5ccccc5C4)cccc3C2=O)C(=O)N1` (centres undefined) had a melting point of 258 to 260 °C.

Compound `O=C(OC1CCN(Cc2ccccc2)CC1)c1ccc([N+](=O)[O-])cc1` had a melting point of 87 to 89 °C.

Turning to `COc1nc(-c2ccccc2)c2c(n1)N(c1c(F)cccc1F)C(=O)NC2`, the melting point was in the range of 221 to 224 °C.

Regarding `O=C1c2ccccc2S(=O)(=O)N1CCCCOc1ccc(OCc2ccccc2)cc1`, the melting point lay within 82 to 84 °C.

`Cc1c(F)c(N2CCC(N)C2)c(F)c2c1c(=O)c(C(=O)O)cn2C1CC1` (centres undefined) yielded a melting point of over 300 °C.

`O=C1N(Cc2ccccn2)c2cccnc2C12COc1cc3c(cc12)OCCO3` (centres undefined) came in with a melting point of 146 to 147 °C.

As to `O=CCCOC(c1ccccc1)(c1ccccc1)c1ccccc1`, the melting point was 97 to 98 °C.

`CCS(=O)Cc1cccc(-c2nc(=O)c3ccccc3s2)n1` (centres undefined) registered a melting point of 188 to 190 °C.

`CCc1c(N)c(C(N)=O)nn1C[C@H]1CCCN1C` gave a melting point of 130 to 133 °C.

Turning to `O=C(O)c1nc(-c2ccccc2Oc2ccc(F)cc2O)no1`, the melting point lay within 127 to 128 °C.

With `O=S(=O)(c1ccc(Cl)cc1)n1ccc2cc(F)ccc21`, the melting point was 108 to 109 °C.

`CCOC(=O)C1=C(C)NC(=S)NC1c1cccc([N+](=O)[O-])c1` (centres undefined) returned a melting point of 208 to 209 °C.

As for `O=C(c1ccco1)C1C(=O)N(c2nccs2)c2ccccc21` (centres undefined), the melting point is 156 to 157 °C.

The compound `FC(F)(F)c1cc(/C=C/c2ncon2)ccc1Cl` had a melting point of 85 to 87 °C.

On to `CC1(C)CC(=O)Nc2ccc([N+](=O)[O-])cc21`, for which the melting point lay within 202 to 204 °C.

Compound `COc1cc(OC)cc(N2CCN(C(=O)Nc3cc4ccccc4nc3OC)CC2)c1` returned a melting point of 200 to 201 °C.

Compound `COC(=O)[C@H]1CC[C@H](NC(=O)c2cc(-c3ccc(C(=N)N)cc3)nn(Cc3ccccc3)c2=O)CC1` displayed a melting point of 168 to 173 °C.

As to `C=CCOc1c(Cl)cc(-c2ccc(=O)[nH]n2)cc1Cl`, the melting point was in the range of 214 to 215 °C.

Compound `O=C(CCc1ccccc1)N[C@H](Cc1ccc(C(F)(F)F)cc1)[C@@H](O)c1ccc(Cl)nc1` (racemic) registered a melting point of 149 to 150 °C.

Compound `Cc1cccc(C(=O)c2ccccc2F)c1N` showed a melting point of 65.5 to 67.5 °C.

The compound `CC(C)(C)COC(=O)C(C#N)=Cc1cc(O)c(O)c([N+](=O)[O-])c1` had a melting point of 173 to 179 °C.

Consider `NS(=O)(=O)c1cccc(-c2nc(-c3cnn4c(C(F)(F)F)cc(-c5ccc(C(F)(F)F)cc5)nc34)no2)c1`, for which the melting point came out at 285 °C.

Compound `CCOC(=O)P(=O)(O)C(=O)OCC` registered a melting point of 150 to 155 °C.

The compound `N#Cc1ncn(-c2cccc(Cl)c2F)c1I` came in with a melting point of 182 to 183 °C.

Compound `FC(F)(F)c1cccc(N=C2SCCN2C(=S)Nc2cccc(C(F)(F)F)c2)c1` yielded a melting point of 116 to 117 °C.

Take `COC(=O)c1ccc(OC)c(Nc2ccccc2)c1`: the melting point fell in the range of 79 to 81 °C.

With `CC(C)(C)[Si](C)(C)O[C@H]1CC(=O)O[C@H](CO)C1`, the melting point came out at 102 °C.

The compound `Cc1c(C(=O)O)ccc2c1C(O)CCS2(=O)=O` (centres undefined) registered a melting point of 172 to 173 °C.

`CCCCc1cc(NCc2ccc(-c3ccccc3C#N)cc2)n2nccc2n1`: the melting point was in the range of 200 to 202 °C.

`COc1ccc(COc2cccnc2NC(=S)Nc2ccc(Cl)cc2)cc1`: the melting point lay within 136 to 138 °C.

The compound `Cn1nc(-c2cc([N+](=O)[O-])c(Cl)cc2F)c(Cl)c1S(C)=O` (centres undefined) returned a melting point of 151 °C.

`O=c1[nH]nc(CCc2cc(F)c(C(F)(F)F)c(F)c2)cc1O` gave a melting point of 211 to 212 °C.

Compound `CCc1noc(C)c1-c1[nH]c2ccccc2c1CN(C)C` showed a melting point of 88 to 90 °C.

`CC(=O)N1N=C2C(=Cc3cccc(C(F)(F)F)c3)CS(=O)(=O)CC2C1c1cccc(C(F)(F)F)c1` (centres undefined) registered a melting point of 200 to 202 °C.

Compound `CC(C)(C)NS(=O)(=O)Cc1ccccc1N` had a melting point of 115 to 117 °C.

For the compound `CCOC(=O)c1c[nH]c2cc(C)cc(O)c12`, the melting point was 152 to 154 °C.

For the compound `Cc1nn(C)c(NCC(C)(C)C)c1N`, the melting point was 65 to 69 °C.

Turning to `COC(=O)c1cc(-c2ccc(OC)c(OC)c2)nn(CC(C)C)c1=O`, the melting point was in the range of 104 to 106 °C.
